Data from US9540343B2 (Gilead Sciences, Inc., priority 2011, dated 2017).

Key:
in vitro = test: in vitro
Outline: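 Cytoprotection read-out: CellTiter-Glo chemiluminescence after 5 days at 37 °C of HIV-IIIb-infected MT-4 cells (m.o.i. 0.003) with compound in 10-point 3-fold dilutions, quadruplicate, 10% FBS. Cytotoxicity (CC50) measured identically without virus.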

HIV-IIIb = test: Test A: Antiviral assay in MT4 cells; assay type: cell-based, HIV-1; details: MT-4 cells infected with HIV-IIIb, 5 days, CellTiter-Glo; for inhibition at 2 µM: Human immunodeficiency virus 1, IIIB, MT4, 120 h, read-out: % inhibition at 2 μM, percent inhibition of virus-induced cell killing, from dose response curve at 2 uM drug
[1] = human, uninfected MT-4 cells, CC50 (nM), same protocol as Test A, CellTiter-Glo
[2] = human, CC50 (nM), uninfected MT-4 cells, same protocol as Test A, CellTiter-Glo

| Compound | CC50 at 5 days (in vitro; [1]) [nM] | inhibition at 2 µM (HIV-IIIb) [%] | CC50 at 5 days (in vitro; [2]) [nM] | % inhibition at 2 μM (HIV-IIIb; percent inhibition of virus-induced cell killing, from dose response curve at 2 uM drug) [%] |
| --- | --- | --- | --- | --- |
| NC(=O)c1cc(-c2cccnc2[C@H](Cc2cc(F)cc(F)c2)NC(=O)Cc2c[nH]c3cc(F)c(F)cc23)ccc1F [Example 533E, (S)-5-(2-(1-(2-(5,6-difluoro-1H-indol-3-yl)acetamido)-2-(3,5-difluorophenyl)ethyl)pyridin-3-yl)-2-fluorobenzamide] | 19300 | 142 | – | – |
| Cc1cccc2[nH]cc(CC(=O)N[C@@H](Cc3cc(F)cc(F)c3)c3ncccc3-c3ccc(Cl)cc3)c12 [Example 534, (S)—N-(1-(3-(4-chlorophenyl)pyridin-2-yl)-2-(3,5-difluorophenyl)ethyl)-2-(4-methyl-1H-indol-3-yl)acetamide] | 9820 | 29 | – | – |
| NC(=O)c1cc(-c2cccnc2[C@H](Cc2cc(F)cc(F)c2)NC(=O)Cn2nc(C(F)(F)F)c3c2CCC3(F)F)ccc1F [Example 535G, (S)-5-(2-(1-(2-(4,4-difluoro-3-(trifluoromethyl)-5,6-dihydrocyclopenta[c]pyrazol-1(4H)-yl)acetamido)-2-(3,5-difluorophenyl)ethyl)pyridin-3-yl)-2-fluorobenzamide] | 25300 | 9 | – | – |
| Cc1cc2[nH]cc(CC(=O)N[C@@H](Cc3cc(F)cc(F)c3)c3ncccc3-c3cccc(C(N)=O)c3)c2cc1OCc1ccccc1 [Example 536I, (S)-3-(2-(1-(2-(5-(benzyloxy)-6-methyl-1H-indol-3-yl)acetamido)-2-(3,5-difluorophenyl)ethyl)pyridin-3-yl)benzamide] | 8600 | 12 | – | – |
| CC(C)c1nccn1CC(=O)N[C@@H](Cc1cc(F)cc(F)c1)c1ncccc1-c1ccc(F)c(C(N)=O)c1 [Example 537, (S)-5-(2-(2-(3,5-difluorophenyl)-1-(2-(2-isopropyl-1H-imidazol-1-yl)acetamido)ethyl)pyridin-3-yl)-2-fluorobenzamide] | > 53200 | 2 | – | – |
| CC(C)c1cc(C(C)C)n(CC(=O)N[C@@H](Cc2cc(F)cc(F)c2)c2ncccc2-c2ccc(F)c(C(N)=O)c2)n1 [Example 538, (S)-5-(2-(2-(3,5-difluorophenyl)-1-(2-(3,5-diisopropyl-1H-pyrazol-1-yl)acetamido)ethyl)pyridin-3-yl)-2-fluorobenzamide] | 23300 | 14 | – | – |
| O=C(Cn1nc(C(F)F)cc1C(F)F)N[C@@H](Cc1cc(F)cc(F)c1)c1ncccc1-c1ccc(S(=O)(=O)N2CCOCC2)cc1 [Example 539, (S)-2-(3,5-bis(difluoromethyl)-1H-pyrazol-1-yl)-N-(2-(3,5-difluorophenyl)-1-(3-(4-(morpholinosulfonyl)phenyl)pyridin-2-yl)ethyl)acetamide] | 20800 | 10 | – | – |
| CC(=O)c1cn(CC(=O)N[C@@H](Cc2cc(F)cc(F)c2)c2ncccc2-c2ccc(Cl)cc2)c2ccccc12 [Example 541, (S)-2-(3-acetyl-1H-indol-1-yl)-N-(1-(3-(4-chlorophenyl)pyridin-2-yl)-2-(3,5-difluorophenyl)ethyl)acetamide] | – | 37 | 8150 | – |
| NC(=O)c1cc(-c2cccnc2[C@H](Cc2cc(F)cc(F)c2)NC(=O)Cn2nc(C(F)(F)F)cc2C(F)(F)F)ccc1F [Example 542, (S)-5-(2-(1-(2-(3,5-bis(trifluoromethyl)-1H-pyrazol-1-yl)acetamido)-2-(3,5-difluorophenyl)ethyl)pyridin-3-yl)-2-fluorobenzamide] | 33600 | 1 | – | – |
| CCC(C(=O)N[C@@H](Cc1cc(F)cc(F)c1)c1ncccc1-c1ccc(F)c(C(N)=O)c1)n1cc(C(C)=O)c2ccccc21 (stereo partly drawn) [Example 543, 5-(2-((1S)-1-(2-(3-acetyl-1H-indol-1-yl)butanamido)-2-(3,5-difluorophenyl)ethyl)pyridin-3-yl)-2-fluorobenzamide] | – | – | 44000 | 4 |
| Cc1ccc2ccn(CC(=O)N[C@@H](Cc3cc(F)cc(F)c3)c3ncccc3-c3ccc(F)c(C(N)=O)c3)c2c1 [Example 545, (S)-5-(2-(2-(3,5-difluorophenyl)-1-(2-(6-methyl-1H-indol-1-yl)acetamido)ethyl)pyridin-3-yl)-2-fluorobenzamide] | 15900 | 37 | – | – |
| NC(=O)c1cccc(-c2cccnc2[C@H](Cc2cc(F)cc(F)c2)NC(=O)Cn2ccc3c(F)cc(F)cc32)c1 [Example 546C, (S)-3-(2-(1-(2-(4,6-difluoro-1H-indol-1-yl)acetamido)-2-(3,5-difluorophenyl)ethyl)pyridin-3-yl)benzamide] | 16800 | 15 | – | – |
| Cc1ccc2c(ccn2CC(=O)N[C@@H](Cc2cc(F)cc(F)c2)c2ncccc2-c2ccc(F)c(C(N)=O)c2)c1 [Example 547, (S)-5-(2-(2-(3,5-difluorophenyl)-1-(2-(5-methyl-1H-indol-1-yl)acetamido)ethyl)pyridin-3-yl)-2-fluorobenzamide] | 13300 | 45 | – | – |
| O=C1Cc2cc(-c3cccnc3[C@H](Cc3cc(F)cc(F)c3)NC(=O)Cn3nc(C(F)F)c4c3C(F)(F)CCC4(F)F)ccc2N1 [Example 548D, (S)-2-(3-(difluoromethyl)-4,4,7,7-tetrafluoro-4,5,6,7-tetrahydro-1H-indazol-1-yl)-N-(2-(3,5-difluorophenyl)-1-(3-(2-oxoindolin-5-yl)pyridin-2-yl)ethyl)acetamide] | 10100 | 54 | – | – |
| NCc1ccc2c(CC(=O)N[C@@H](Cc3cc(F)cc(F)c3)c3ncccc3-c3ccc(Cl)cc3)c[nH]c2c1 [Example 549, (S)-2-(6-(aminomethyl)-1H-indol-3-yl)-N-(1-(3-(4-chlorophenyl)pyridin-2-yl)-2-(3,5-difluorophenyl)ethyl)acetamide] | 10200 | 38 | – | – |
| NC(=O)c1cc(-c2cccnc2[C@H](Cc2cc(F)cc(F)c2)NC(=O)Cn2ncc3c(Cl)cc(Cl)cc32)ccc1F [Example 550, (S)-5-(2-(1-(2-(4,6-dichloro-1H-indazol-1-yl)acetamido)-2-(3,5-difluorophenyl)ethyl)pyridin-3-yl)-2-fluorobenzamide] | 17000 | 1 | – | – |
| NC(=O)c1cc(-c2cccnc2[C@H](Cc2cc(F)cc(F)c2)NC(=O)Cn2nc(C(F)(F)F)c3c2C(=O)CC3(F)F)ccc1F [Example 551, (S)-5-(2-(1-(2-(4,4-difluoro-6-oxo-3-(trifluoromethyl)-5,6-dihydrocyclopenta[c]pyrazol-1(4H)-yl)acetamido)-2-(3,5-difluorophenyl)ethyl)pyridin-3-yl)-2-fluorobenzamide] | > 53200 | 0 | – | – |
| C=Cc1c(C(F)F)nn(CC(=O)N[C@@H](Cc2cc(F)cc(F)c2)c2ncccc2-c2ccc(F)c(C(N)=O)c2)c1C(F)F [Example 553, (S)-5-(2-(1-(2-(3,5-bis(difluoromethyl)-4-vinyl-1H-pyrazol-1-yl)acetamido)-2-(3,5-difluorophenyl)ethyl)pyridin-3-yl)-2-fluorobenzamide] | 23800 | 11 | – | – |
| NC(=O)c1cc(-c2cccnc2[C@H](Cc2cc(F)cc(F)c2)NC(=O)Cn2nc(C(F)F)c(Br)c2C(F)F)ccc1F [Example 555C, (S)-5-(2-(1-(2-(4-bromo-3,5-bis(difluoromethyl)-1H-pyrazol-1-yl)acetamido)-2-(3,5-difluorophenyl)ethyl)pyridin-3-yl)-2-fluorobenzamide] | 25500 | 14 | – | – |
